In patent US7525011B2, “Transgenic cancer models in fish” (Dana-Farber Cancer Institute, priority 2002, dated 2009):

Assays:
zebrafish embryos = assay: 96-well plate embryo survival assay; assay type: in vivo; conditions: 1% DMSO in egg water, 5- to 8-day old embryos
Procedure: Next it was determined if 5- to 8-day old zebrafish embryos are able to survive in 96 well plates, and what […] of water was necessary to attain high levels of survival. Six-day old zebrafish embryos were allocated to wells in a 96 well plate. Three to four embryos were grown in 250, 150, and 100 μl of egg water with and without 1% DMSO and analyzed daily for mortality.

MYC-ER = conditions: in the presence of tamoxifen; by 300 days of development; CD2-MYC-ER mouse models; cited from earlier work

## C[S+](C)[O-] [DMSO]
Zebrafish embryos
  effect on embryo survival: no significant effect

## CC/C(=C(\c1ccccc1)c1ccc(OCCN(C)C)cc1)c1ccccc1 [tamoxifen]
MYC-ER
  offspring developing tumors: 62%
